Like-named read-outs stand apart in the source and are kept apart here. Starred links: 1 amine or outer side, 2 acyl side, 3 side chain; linkers in the order of their positions; H or OH if unused. Positions of bridges follow the written chain, without caps; N, C: chain ends. Residues, ends and D or L forms follow the SMILES beside them. TATA = O=C(CC[*:1])N1CN(C(=O)CC[*:2])CN(C(=O)CC[*:3])C1; TATB = O=C(C[*:1])N1CN(C(=O)C[*:2])CN(C(=O)C[*:3])C1
Tests used:
cynomolgus TfR1 [1] = type: binding
human TfR1 [2] = target: T1, human TfR1 (Homo sapiens, UniProt P02786); assay: biochemical; type: binding; parameters: His6-tagged TfR1 (a.a. 89-760) (ACRO Biosystems, CD1-H5243 and TFR-C524a); His6; purchased R&D Systems or Acro Biosystems 2474-TR or CD1-H5243
Target sequence in this assay (P02786 89-760): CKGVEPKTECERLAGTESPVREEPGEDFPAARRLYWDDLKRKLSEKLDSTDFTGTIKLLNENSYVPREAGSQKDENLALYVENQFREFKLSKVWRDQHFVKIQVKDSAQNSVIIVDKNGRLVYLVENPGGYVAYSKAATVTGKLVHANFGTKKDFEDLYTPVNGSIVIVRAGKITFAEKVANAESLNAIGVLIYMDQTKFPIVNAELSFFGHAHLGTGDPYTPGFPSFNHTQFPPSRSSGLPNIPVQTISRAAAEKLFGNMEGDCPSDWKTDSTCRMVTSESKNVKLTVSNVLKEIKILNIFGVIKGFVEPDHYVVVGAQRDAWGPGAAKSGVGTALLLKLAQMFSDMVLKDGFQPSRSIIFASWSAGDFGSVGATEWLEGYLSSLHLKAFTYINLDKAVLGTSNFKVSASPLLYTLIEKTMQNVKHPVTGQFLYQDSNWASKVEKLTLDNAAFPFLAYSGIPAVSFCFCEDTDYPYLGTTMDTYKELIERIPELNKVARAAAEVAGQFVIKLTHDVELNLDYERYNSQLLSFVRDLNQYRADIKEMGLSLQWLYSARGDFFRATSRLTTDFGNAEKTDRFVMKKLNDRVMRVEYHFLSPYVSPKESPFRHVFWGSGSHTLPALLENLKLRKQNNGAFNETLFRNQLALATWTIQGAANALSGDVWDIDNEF

human TfR1 [3] = target: T1, human TfR1; assay: biochemical; type: binding; parameters: His6-tagged TfR1 (a.a. 89-760) (ACRO Biosystems, CD1-H5243 and TFR-C524a); His6; purchased R&D Systems or Acro Biosystems 2474-TR or CD1-H5243; remark: listed apart in the source
Target sequence in this assay (P02786 89-760): as above

cynomolgus TfR1 [4] = type: binding; remark: listed apart in the source
human TfR1 [5] = target: T1, human TfR1; assay: TfR1 inhibition assay (Alpha assay, transferrin inhibition); settings: inhibition of fluorescently labelled human transferrin binding; read-out: Geomean IC50 (μM) Human TfR1
Experimental: TfR1 inhibitory activity of peptides of the invention (IC50) was determined using Alpha assay, in accordance with the following method. Proteins, peptides and Alpha reagents were prepared to 5× concentration and 5 μl of each reagent added to 25 μl total volume in white 384-well Optiplate to make 1× final concentration. Fluorescently labelled human transferrin (Invitrogen, T2871) was diluted to 2.5 nM in 25 mM HEPES with 100 mM NaCl, 4 mM CaCl2, 0.5% BSA and 0.05% P20, pH 7.4. Human or cynomolgus TfR1 protein was diluted to 50 nM and unlabelled human transferrin (R&D Systems, 2914-HT) was diluted to 500 nM in the same assay buffer. Non-labelled peptides from DMSO stock were diluted 20-fold in the same assay buffer, followed by 1 in 3 serial dilution in assay buffer containing 5% DMSO to give 11-different concentrations. 5 μl fluorescently labelled transferrin, 5 μl human or cynomolgus TfR1, 5 μl non-labelled peptide or unlabelled human transferrin (R&D Systems, 2914-HT) were added to white 384-well Optiplate and incubated for 30 min. Anti-FITC Acceptor (PerkinElmer, AL127) was diluted 50-fold in assay buffer, 5 μl added to assay plate and incubated for 30 min. […] Luminescence measurements were conducted on a BMG PHERAstar FS or FSX equipped with an AlphaScreen 520-620 module at 25° C. following excitation at 680 nm. […]
Target sequence in this assay (P02786 whole entry): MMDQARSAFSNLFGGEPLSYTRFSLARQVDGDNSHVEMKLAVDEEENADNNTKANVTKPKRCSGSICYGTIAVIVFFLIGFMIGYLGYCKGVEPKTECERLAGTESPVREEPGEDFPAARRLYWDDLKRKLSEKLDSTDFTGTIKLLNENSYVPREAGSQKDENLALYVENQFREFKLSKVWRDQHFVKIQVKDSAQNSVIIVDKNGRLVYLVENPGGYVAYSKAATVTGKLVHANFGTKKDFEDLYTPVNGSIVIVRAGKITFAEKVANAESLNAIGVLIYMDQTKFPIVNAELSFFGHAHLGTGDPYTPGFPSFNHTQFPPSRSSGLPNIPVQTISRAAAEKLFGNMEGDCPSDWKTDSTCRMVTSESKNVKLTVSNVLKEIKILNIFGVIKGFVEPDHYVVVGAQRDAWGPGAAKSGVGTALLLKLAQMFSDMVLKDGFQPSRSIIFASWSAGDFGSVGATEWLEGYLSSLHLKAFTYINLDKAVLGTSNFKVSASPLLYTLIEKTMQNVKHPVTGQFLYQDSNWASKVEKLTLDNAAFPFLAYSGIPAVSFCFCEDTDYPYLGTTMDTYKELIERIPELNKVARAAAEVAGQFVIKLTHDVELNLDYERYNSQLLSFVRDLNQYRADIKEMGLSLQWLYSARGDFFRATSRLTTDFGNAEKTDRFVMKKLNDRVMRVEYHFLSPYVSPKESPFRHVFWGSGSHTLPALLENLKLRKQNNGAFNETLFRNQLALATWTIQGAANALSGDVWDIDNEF

Row | IC50 (human TfR1 [5]) | Structure (SMILES) | Kd (cynomolgus TfR1 [1]) | Kd (human TfR1 [2]; Human TfR1 Kd (nM)) | Ki (human TfR1 [3]; Geomean Ki (μM)) | Ki (cynomolgus TfR1 [4]) | Ki (human TfR1 [3]; Human TfR1 Ki (nM)) | Kd (human TfR1 [2]; read-out: Human TfR1 Kd)
1 |  | CC[C@H](C)[C@@H]1NC(=O)[C@@H]2CSCC(=O)N3CN(CN(C3)C(=O)CSC[C@H](NC(=O)[C@H](CO)NC(=O)[C@@H](NC(=O)[C@@H](N)Cc3c[nH]cn3)[C@@H](C)O)C(=O)N[C@@H](CO)C(=O)N3CCC[C@H]3C(=O)N[C@@H](CC(=O)O)C(=O)N[C@@H](C)C(=O)N[C@@H](Cc3c[nH]cn3)C(=O)N[C@@H](CC(C)C)C(=O)NCC(=O)N2)C(=O)CSC[C@@H](C(=O)N[C@@H](C)C(N)=O)NC(=O)[C@H](Cc2ccc(O)cc2)NC(=O)[C@H](CO)NC1=O [BCY17111, HTS-(SEQ ID NO: 9)-A] (H-HTSCSPDAHLGCISYCA-NH2; linker 4-12-16 via TATB) | 0.907 µM | 8.3 nM | 0.086 µM |  |  | 
2 |  | CC[C@H](C)[C@@H]1NC(=O)[C@@H]2CSCC(=O)N3CN(CN(C3)C(=O)CSC[C@@H](C(=O)N[C@@H](C)C(N)=O)NC(=O)[C@H](Cc3ccc(O)cc3)NC(=O)[C@H](CO)NC1=O)C(=O)CSC[C@H](NC(=O)[C@H](C)N)C(=O)N[C@@H](CO)C(=O)N1CCC[C@H]1C(=O)N[C@@H](CC(=O)O)C(=O)N[C@@H](C)C(=O)N[C@@H](Cc1c[nH]cn1)C(=O)N[C@@H](CC(C)C)C(=O)NCC(=O)N2 [BCY15468, A-(SEQ ID NO: 9)-A] | 4.01 µM | 29 nM |  | 1.23 µM | 0.103 µM | 
3 |  | CC[C@H](C)[C@@H]1NC(=O)[C@@H]2CSCC(=O)N3CN(CN(C3)C(=O)CSC[C@@H](C(=O)N[C@@H](C)C(N)=O)NC(=O)[C@H](Cc3ccc4ccccc4c3)NC(=O)[C@H](CO)NC1=O)C(=O)CSC[C@H](NC(=O)[C@H](C)N)C(=O)N[C@@H](CO)C(=O)N1CCC[C@H]1C(=O)N[C@@H](CC(=O)O)C(=O)N[C@@H](C)C(=O)N[C@@H](Cc1c[nH]cn1)C(=O)N[C@@H](CC(C)C)C(=O)NCC(=O)N2 [BCY16031, A-(SEQ ID NO: 36)-A] | 6.48 µM |  | 0.119 µM |  |  | 68 nM
4 |  | CC[C@H](C)[C@@H]1NC(=O)[C@@H]2CSCC(=O)N3CN(CN(C3)C(=O)CSC[C@@H](C(=O)N[C@@H](CCC(=O)O)C(=O)N[C@@H](Cc3c[nH]cn3)C(=O)N[C@@H](CCC(N)=O)C(=O)N[C@@H](CCC(=O)O)C(N)=O)NC(=O)[C@H](Cc3ccc(O)cc3)NC(=O)[C@H](CO)NC1=O)C(=O)CSC[C@H](NC(=O)[C@H](C)N)C(=O)N[C@@H](CO)C(=O)N1CCC[C@H]1C(=O)N[C@@H](CC(=O)O)C(=O)N[C@@H](C)C(=O)N[C@@H](Cc1c[nH]cn1)C(=O)N[C@@H](CC(C)C)C(=O)NCC(=O)N2 [BCY17119, A-(SEQ ID NO: 9)-EHQE] (H-ACSPDAHLGCISYCEHQE-NH2; linker 2-10-14 via TATB) | 5.65 µM | 212 nM | 0.16 µM |  |  | 
5 | 1.21 µM | CC[C@H](C)[C@@H]1NC(=O)[C@H](Cc2ccccc2)NC(=O)[C@H](C)NC(=O)[C@H](CC(C)C)NC(=O)CNC(=O)[C@@H]2CSCCC(=O)N3CN(CN(C3)C(=O)CCSC[C@@H](C(=O)N[C@@H](C)C(N)=O)NC(=O)[C@H](CCC(=O)O)NC1=O)C(=O)CCSC[C@H](NC(=O)[C@H](C)N)C(=O)N[C@@H](CCCNC(=N)N)C(=O)N[C@@H](CCC(=O)O)C(=O)N[C@@H](Cc1ccccc1)C(=O)N[C@@H](Cc1ccccc1)C(=O)N[C@@H](CC(=O)O)C(=O)N[C@@H]([C@@H](C)O)C(=O)N2 [BCY12452, A-(SEQ ID NO: 2)-A] (H-ACREFFDTCGLAFIECA-NH2; linker 2-9-16 via TATA; N-terminus and C-terminus assumed) |  |  |  |  |  | 
6 |  | CC[C@H](C)[C@@H]1NC(=O)[C@@H]2CSCC(=O)N3CN(CN(C3)C(=O)CSC[C@@H](C(=O)N[C@@H](CCC(=O)O)C(=O)N3CCCC[C@H]3C(=O)N[C@@H](Cc3c[nH]c4ccccc34)C(N)=O)NC(=O)[C@H](Cc3ccc(O)cc3)NC(=O)[C@H](CO)NC1=O)C(=O)CSC[C@H](NC(C)=O)C(=O)N[C@@H](CO)C(=O)N1CCC[C@H]1C(=O)N[C@@H](CC(=O)O)C(=O)N[C@@H](C)C(=O)N[C@@H](Cc1c[nH]cn1)C(=O)N[C@@H](CC(C)C)C(=O)NCC(=O)N2 [BCY18039, Ac-(SEQ ID NO: 9)-E[Pip]W] | 0.819 µM | 8.6 nM | 0.008 µM |  | 0.008 µM | 
7 |  | CC[C@H](C)[C@@H]1NC(=O)[C@@H]2CSCC(=O)N3CN(CN(C3)C(=O)CSC[C@H](NC(=O)[C@H](Cc3ccccc3)NC(=O)[C@H](CO)NC(=O)[C@@H](N)CCC(=O)O)C(=O)N[C@@H](CO)C(=O)N3CCC[C@H]3C(=O)N[C@@H](CC(=O)O)C(=O)N[C@@H](C)C(=O)N[C@@H](Cc3c[nH]cn3)C(=O)N[C@@H](CC(C)C)C(=O)NCC(=O)N2)C(=O)CSC[C@@H](C(=O)N[C@@H](C)C(N)=O)NC(=O)[C@H](Cc2ccc(O)cc2)NC(=O)[C@H](CO)NC1=O [BCY17113, ESF-(SEQ ID NO: 9)-A] (H-ESFCSPDAHLGCISYCA-NH2; linker 4-12-16 via TATB) | 1.66 µM | 308 nM | 0.103 µM |  |  | 
8 |  | CC[C@H](C)[C@@H]1NC(=O)[C@@H]2CSCC(=O)N3CN(CN(C3)C(=O)CSC[C@H](NC(=O)[C@H](CCSC)NC(=O)[C@H](Cc3c[nH]c4ccccc34)NC(=O)[C@@H](N)Cc3c[nH]cn3)C(=O)N[C@@H](CO)C(=O)N3CCC[C@H]3C(=O)N[C@@H](CC(=O)O)C(=O)N[C@@H](C)C(=O)N[C@@H](Cc3c[nH]cn3)C(=O)N[C@@H](CC(C)C)C(=O)NCC(=O)N2)C(=O)CSC[C@@H](C(=O)N[C@@H](C)C(N)=O)NC(=O)[C@H](Cc2ccc(O)cc2)NC(=O)[C@H](CO)NC1=O [BCY17110, HWM-(SEQ ID NO: 9)-A] (H-HWMCSPDAHLGCISYCA-NH2; linker 4-12-16 via TATB) | 0.232 µM | 15 nM | 0.022 µM |  |  | 
9 |  | CC[C@H](C)[C@@H]1NC(=O)[C@@H]2CSCC(=O)N3CN(CN(C3)C(=O)CSC[C@@H](C(=O)N3CCC[C@H]3C(=O)N[C@@H](Cc3c[nH]cn3)C(=O)N3CCC[C@H]3C(N)=O)NC(=O)[C@H](Cc3ccc(O)cc3)NC(=O)[C@H](CO)NC1=O)C(=O)CSC[C@H](NC(=O)[C@H](C)N)C(=O)N[C@@H](CO)C(=O)N1CCC[C@H]1C(=O)N[C@@H](CC(=O)O)C(=O)N[C@@H](C)C(=O)N[C@@H](Cc1c[nH]cn1)C(=O)N[C@@H](CC(C)C)C(=O)NCC(=O)N2 [BCY17115, A-(SEQ ID NO: 9)-PHP] (H-ACSPDAHLGCISYCPHP-NH2; linker 2-10-14 via TATB; N-terminus and C-terminus assumed) | 1.24 µM | 60 nM | 0.03 µM |  | 0.03 µM | 
10 |  | CC[C@H](C)[C@@H]1NC(=O)[C@@H]2CSCC(=O)N3CN(CN(C3)C(=O)CSC[C@H](NC(C)=O)C(=O)N[C@@H](CO)C(=O)N3CCC[C@H]3C(=O)N[C@@H](CC(=O)O)C(=O)N[C@@H](C)C(=O)N[C@@H](Cc3c[nH]cn3)C(=O)N[C@@H](CC(C)C)C(=O)NCC(=O)N2)C(=O)CSC[C@@H](C(N)=O)NC(=O)[C@H](Cc2ccc(O)cc2)NC(=O)[C@H](CO)NC1=O [BCY15891, Ac-(SEQ ID NO: 9)] (Ac-CSPDAHLGCISYC-NH2; linker 1-9-13 via TATB) | 3.99 µM | 46 nM | 0.067 µM |  | 0.094 µM | 
11 |  | CC[C@H](C)[C@@H]1NC(=O)[C@@H]2CSCC(=O)N3CN(CN(C3)C(=O)CSC[C@H](NC(C)=O)C(=O)N[C@@H](CO)C(=O)N[C@@H](C)C(=O)N[C@@H](CC(=O)O)C(=O)N[C@@H](C)C(=O)N[C@@H](Cc3c[nH]cn3)C(=O)N[C@@H](CC(C)C)C(=O)NCC(=O)N2)C(=O)CSC[C@@H](C(N)=O)NC(=O)[C@H](Cc2ccc(O)cc2)NC(=O)[C@H](CO)NC1=O [BCY17987, Ac-(SEQ ID NO: 19)] (Ac-CSADAHLGCISYC-NH2; linker 1-9-13 via TATB) | 5.14 µM | 50 nM | 0.042 µM |  | 0.383 µM | 
12 |  | CC[C@H](C)[C@@H]1NC(=O)[C@@H]2CSCC(=O)N3CN(CN(C3)C(=O)CSC[C@@H](C(=O)N[C@@H](C)C(N)=O)NC(=O)[C@H](Cc3ccc(O)cc3)NC(=O)[C@H](CO)NC1=O)C(=O)CSC[C@H](NC(=O)[C@H](C)N)C(=O)N[C@@H](CO)C(=O)N1C[C@H](O)C[C@H]1C(=O)N[C@@H](CC(=O)O)C(=O)N[C@@H](C)C(=O)N[C@@H](Cc1c[nH]cn1)C(=O)N[C@@H](CC(C)C)C(=O)NCC(=O)N2 [BCY16047, A-(SEQ ID NO: 15)-A] | 4.83 µM |  | 0.133 µM |  | 0.042 µM | 49 nM

— patent US20240391959A1, “BICYCLIC PEPTIDE LIGANDS […] FOR TRANSFERRIN RECEPTOR 1 (TfR1)” (BicycleTx Limited, priority 2020, published 2024)
